From patent publication US10689362B2, “Quinoxaline compounds as type III receptor tyrosine kinase inhibitors” (Development Center for Biotechnology, priority 2016, dated 2020) come the findings set out here.

Assay [1] concerns osteoclast precursors (osteoclast differentiation). Kind of assay: Osteoclast tartrate-resistant acid phosphatase assay. As to conditions: 168 h, at 1 μM treatment, 7 days, RANKL and M-CSF, read-out: inhibition activity against osteoclast differentiation. It is filed as cell-based. Here is the method: A serial dilution of test compound was dispensed into a 96-well black clear bottom plate. Compound was diluted by the addition of DMEM media supplemented with 10% characterized fetal bovine serum. Diluted compound was transferred to a 96-well black clear bottom plate. Three thousand osteoclast precursors (Lonza, Walkersville, Md.) were added per well in growth medium containing Receptor Activator of Nuclear Factor Kappa-beta ligand (RANKL) and M-CSF. […] At the end of the incubation period, 50 μL of supernatant from each well was transferred to a clear 96-well plate. Tartrate-resistant acid phosphatase activity in the supernatant samples was determined using an acid phosphatase assay kit (Sigma, St. Louis, Mo.). Absorbance was measured at 550 nm using a plate reader. […] The Inhibition activity against osteoclast differentiation for each compound at 1 μM treatment in duplicate was measured.

Assay [2] has as its system Kasumi-1 human acute myeloid leukemia cell with c-KIT N822K activating mutation. Kind of assay: Kasumi-1 cell proliferation assay (CellTiter-96). To be noted: Cytotoxicity, Kasumi-1 cells, 72 hours. The format is cell-based. The procedure: (§1) Inhibition of cell growth by compounds was measured using CellTiter™-96 assay. The cytotoxicity of compounds was evaluated in CSF-1-dependent M-NFS-60 mouse myeloid leukemia cell, FLT3 signal addicted MV4-11 human acute myeloid leukemia cell with FLT3-ITD mutation, c-KIT signal addicted Kasumi-1 human acute myeloid leukemia cell with c-KIT N822K activating mutation, and THP-1 human acute monocytic leukemia cell harboring NRAS G12D mutation.
The compounds disclosed herein were tested in Kasumi cell proliferation assay to determine their cellular potency against c-KIT kinase. Kasumi human acute myeloid leukemia cells harbor ligand-independent N822K c-KIT activating mutation, thus the cell proliferation relied on c-KIT signal. Inhibition of c-KIT kinase activity will cause reduced growth and/or cell death. […] Cells were allowed to expand until reaching saturation at which point they were subcultured or harvested for assay use.
(§2) M-NFS-60, Kasumi-1, MV4-11 and THP-1 cells were seeded into 96-well plates at 2000, 64000, 6500, and 5000 cells/well, respectively, and incubated at 37° C., 5% CO2 overnight. Then, these seeded cells were treated with increasing concentrations of the test compounds and incubated for another 72 hours. At the end of the incubation, CellTiter96® AQueous One Solution Reagent (Promega) was added and incubated for 4 hours. Cell viability was determined by measuring absorbance at 490 nm using EMax® microplate reader (Molecular Devices).

Another assay has as its target FLT3 kinase (Homo sapiens (Human), UniProt P36888). The experiment in a line: FLT3 kinase assay (radiometric). The format is biochemical. The method in brief: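 Recombinant FLT3 (5 ng) phosphorylating poly(Glu4:Tyr1) (2 μg) with 10 μM ATP plus [^33P]-ATP in MOPS pH 7.0 buffer, 4% DMSO final, 60 min at 30° C. Reaction stopped with phosphoric acid, filter-captured and scintillation-counted; IC50 derived from dose-response.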

In a further assay the target is PDGFRβ kinase (Homo sapiens (Human), UniProt P09619). The experiment in a line: PDGFRβ kinase assay (radiometric). It is filed as biochemical. As to conditions: bound. The method in brief: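 Radiometric assay: recombinant PDGFRβ with poly(Glu4:Tyr1) in MOPS pH 7.0 buffer containing Mg2+/Mn2+, 10 μM ATP plus [33P]-ATP, and compound at 4% DMSO final. Incubated 60 min at 30° C, stopped with phosphoric acid, filter-captured and scintillation-counted. IC50 from curve fitting.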
Sequence of PDGFRβ kinase (P09619 33-1106): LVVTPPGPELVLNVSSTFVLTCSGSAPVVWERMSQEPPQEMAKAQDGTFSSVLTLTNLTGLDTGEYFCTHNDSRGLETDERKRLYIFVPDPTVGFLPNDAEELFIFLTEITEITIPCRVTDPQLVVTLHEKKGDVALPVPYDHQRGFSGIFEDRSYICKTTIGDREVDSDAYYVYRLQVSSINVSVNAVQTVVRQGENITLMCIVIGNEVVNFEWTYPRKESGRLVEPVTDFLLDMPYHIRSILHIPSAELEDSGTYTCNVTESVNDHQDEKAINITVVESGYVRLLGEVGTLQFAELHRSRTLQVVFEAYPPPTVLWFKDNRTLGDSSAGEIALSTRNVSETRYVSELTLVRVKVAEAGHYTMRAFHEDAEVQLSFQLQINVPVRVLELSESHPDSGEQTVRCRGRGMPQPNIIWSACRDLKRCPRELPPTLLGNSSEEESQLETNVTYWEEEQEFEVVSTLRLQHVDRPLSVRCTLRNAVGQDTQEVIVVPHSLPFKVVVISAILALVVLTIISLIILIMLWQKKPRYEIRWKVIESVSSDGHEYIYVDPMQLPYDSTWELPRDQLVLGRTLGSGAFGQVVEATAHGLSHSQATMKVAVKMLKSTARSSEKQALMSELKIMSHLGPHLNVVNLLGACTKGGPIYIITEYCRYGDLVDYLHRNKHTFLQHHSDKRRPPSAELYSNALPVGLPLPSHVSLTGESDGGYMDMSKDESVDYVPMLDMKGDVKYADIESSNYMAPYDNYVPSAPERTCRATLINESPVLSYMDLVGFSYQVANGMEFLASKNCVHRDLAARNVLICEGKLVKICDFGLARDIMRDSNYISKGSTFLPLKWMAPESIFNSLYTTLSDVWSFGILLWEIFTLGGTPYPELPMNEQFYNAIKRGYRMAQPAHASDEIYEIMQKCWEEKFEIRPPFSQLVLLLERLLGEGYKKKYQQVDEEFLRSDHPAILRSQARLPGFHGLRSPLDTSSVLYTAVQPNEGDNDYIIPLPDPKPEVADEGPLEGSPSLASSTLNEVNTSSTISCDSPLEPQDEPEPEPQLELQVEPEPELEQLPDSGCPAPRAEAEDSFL

The subject of assay [3] is MV4-11 human acute myeloid leukemia cell with FLT3-ITD mutation. Kind of assay: MV4-11 cell proliferation assay (CellTiter-96). The format is cell-based. To be noted: Cytotoxicity, MV4-11 cells, 72 hours. Here is the method:
as §1
The compounds disclosed herein were tested in MV4-11 cell proliferation assay to determine their cellular potency against FLT3 kinase. MV4-11 human acute myeloid leukemia cells harbor ligand-independent FLT3-ITD activating mutation, which render its proliferation FLT3-ITD dependent. Inhibition of FLT3 kinase activity will cause reduced growth and/or cell death. […] Cells were allowed to expand until reaching saturation at which point they were subcultured or harvested for assay use.
as §2

For the next assay, the target named is c-KIT kinase (Homo sapiens (Human), UniProt P10721). Kind of assay: c-KIT kinase assay (radiometric). It is filed as biochemical. The method in brief: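 Recombinant c-Kit (20 ng) with 2 μg Poly-(Glu4:Tyr1) in MOPS pH 7.0 buffer with MgCl2/MnCl2, 10 μM ATP plus [^33P]-ATP, 4% DMSO final, 60 min at 30° C. Stopped with phosphoric acid, filter-captured and scintillation counted; IC50 from curve fit.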
Sequence of c-KIT kinase (P10721 26-976): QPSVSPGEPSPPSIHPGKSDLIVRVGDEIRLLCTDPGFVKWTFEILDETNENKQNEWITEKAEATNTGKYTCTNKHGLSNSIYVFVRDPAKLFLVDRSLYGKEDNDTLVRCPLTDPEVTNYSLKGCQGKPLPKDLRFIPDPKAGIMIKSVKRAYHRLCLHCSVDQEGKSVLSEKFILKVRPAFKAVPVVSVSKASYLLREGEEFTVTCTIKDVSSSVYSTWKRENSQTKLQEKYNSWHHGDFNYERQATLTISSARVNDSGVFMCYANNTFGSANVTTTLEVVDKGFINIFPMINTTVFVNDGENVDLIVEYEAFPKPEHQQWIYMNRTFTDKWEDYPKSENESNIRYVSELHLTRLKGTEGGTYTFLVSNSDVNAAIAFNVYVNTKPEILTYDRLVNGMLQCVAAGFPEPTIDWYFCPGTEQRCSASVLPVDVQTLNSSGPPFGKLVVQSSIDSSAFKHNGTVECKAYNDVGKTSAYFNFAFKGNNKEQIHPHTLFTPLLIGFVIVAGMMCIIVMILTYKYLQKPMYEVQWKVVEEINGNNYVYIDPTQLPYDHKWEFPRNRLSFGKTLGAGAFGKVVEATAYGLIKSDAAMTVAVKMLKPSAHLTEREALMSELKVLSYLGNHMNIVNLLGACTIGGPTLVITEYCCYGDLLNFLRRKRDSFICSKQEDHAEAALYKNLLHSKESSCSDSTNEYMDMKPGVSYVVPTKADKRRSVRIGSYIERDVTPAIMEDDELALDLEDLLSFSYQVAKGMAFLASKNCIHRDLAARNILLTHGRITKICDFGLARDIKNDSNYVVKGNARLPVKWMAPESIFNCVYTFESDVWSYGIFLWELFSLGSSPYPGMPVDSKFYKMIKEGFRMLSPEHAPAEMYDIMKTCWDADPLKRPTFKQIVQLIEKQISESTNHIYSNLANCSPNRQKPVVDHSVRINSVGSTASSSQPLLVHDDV

The test system of assay [4] is THP-1 human acute monocytic leukemia cell harboring NRAS G12D mutation. Kind of assay: THP-1 cell proliferation assay (counter screen, CellTiter-96). It is filed as cell-based. To be noted: Cytotoxicity, THP-1 cells (counter screen), 72 hours. Here is the method:
as §1
THP-1 human acute monocytic leukemia cells harbor NRAS G12D mutation, which renders cell proliferate independently of class III RTKs signal. […] Cells were allowed to expand until reaching saturation at which point they were subcultured or harvested for assay use.
as §2
(Counterscreens check selectivity or assay interference.)

Another assay concerns the target CSF-1R kinase (Homo sapiens (Human), UniProt P07333). Kind of assay: CSF-1R kinase assay (AlphaScreen). The format is biochemical. The procedure:
Inhibition of CSF-1R kinase activity by a test compound disclosed herein was estimated by AlphaScreen (PerkinElmer). […] Reactions were incubated at 30° C. for 45 min and stopped by adding 5 μL of 50 mM EDTA. Analysis of resulting product using an AlphaScreen kit, and counted with Enspire Alpha (PerkinElmer). […] The IC50 values of quinoxaline compounds of this invention against CSF-1R kinase were determined using the GraphPad Prism 5 software.
For orientation: In Alpha technology, singlet oxygen from a donor bead excites a nearby acceptor bead.

For assay [5], the system named is CSF-1-dependent M-NFS-60 mouse myeloid leukemia cell. Kind of assay: M-NFS-60 cell proliferation assay (CellTiter-96). To be noted: Cytotoxicity, M-NFS-60 cells, 72 hours. The format is cell-based. The procedure: as §1
The compounds disclosed herein were tested in M-NFS-60 cell proliferation assay to determine their cellular potency against CSF-1R. […] Inhibition of CSF-1R kinase activity will cause reduced growth and/or cell death. […] Cells were allowed to expand until reaching saturation at which point they were subcultured or harvested for assay use.
as §2

Some results are limits rather than exact numbers.

Sequence of FLT3 kinase (P36888 27-993): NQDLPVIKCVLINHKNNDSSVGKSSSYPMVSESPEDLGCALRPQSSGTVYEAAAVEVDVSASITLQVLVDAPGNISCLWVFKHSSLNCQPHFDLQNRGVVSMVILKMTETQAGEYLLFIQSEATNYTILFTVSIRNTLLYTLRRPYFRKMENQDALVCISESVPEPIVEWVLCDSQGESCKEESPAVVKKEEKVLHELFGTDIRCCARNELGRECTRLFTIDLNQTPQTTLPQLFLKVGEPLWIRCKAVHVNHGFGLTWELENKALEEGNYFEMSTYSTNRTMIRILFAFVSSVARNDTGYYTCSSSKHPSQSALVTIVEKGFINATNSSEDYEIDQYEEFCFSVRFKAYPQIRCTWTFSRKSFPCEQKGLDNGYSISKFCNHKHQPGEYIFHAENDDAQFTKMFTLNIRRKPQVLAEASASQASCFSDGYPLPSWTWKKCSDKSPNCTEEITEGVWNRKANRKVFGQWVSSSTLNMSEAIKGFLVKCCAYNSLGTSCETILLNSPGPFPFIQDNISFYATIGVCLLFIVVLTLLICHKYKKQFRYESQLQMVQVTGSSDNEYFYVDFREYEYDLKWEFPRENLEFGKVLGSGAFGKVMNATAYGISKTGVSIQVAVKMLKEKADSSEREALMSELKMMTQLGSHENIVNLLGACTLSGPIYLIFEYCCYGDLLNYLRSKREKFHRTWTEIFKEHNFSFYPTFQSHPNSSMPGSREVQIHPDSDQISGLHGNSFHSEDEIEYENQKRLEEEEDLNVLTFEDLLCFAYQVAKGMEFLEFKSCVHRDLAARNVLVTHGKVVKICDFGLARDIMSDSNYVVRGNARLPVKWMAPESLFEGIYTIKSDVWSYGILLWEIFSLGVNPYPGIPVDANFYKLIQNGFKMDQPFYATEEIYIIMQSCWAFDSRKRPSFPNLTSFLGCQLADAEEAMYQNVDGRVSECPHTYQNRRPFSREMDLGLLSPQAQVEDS
Sequence of CSF-1R kinase (P07333 20-972): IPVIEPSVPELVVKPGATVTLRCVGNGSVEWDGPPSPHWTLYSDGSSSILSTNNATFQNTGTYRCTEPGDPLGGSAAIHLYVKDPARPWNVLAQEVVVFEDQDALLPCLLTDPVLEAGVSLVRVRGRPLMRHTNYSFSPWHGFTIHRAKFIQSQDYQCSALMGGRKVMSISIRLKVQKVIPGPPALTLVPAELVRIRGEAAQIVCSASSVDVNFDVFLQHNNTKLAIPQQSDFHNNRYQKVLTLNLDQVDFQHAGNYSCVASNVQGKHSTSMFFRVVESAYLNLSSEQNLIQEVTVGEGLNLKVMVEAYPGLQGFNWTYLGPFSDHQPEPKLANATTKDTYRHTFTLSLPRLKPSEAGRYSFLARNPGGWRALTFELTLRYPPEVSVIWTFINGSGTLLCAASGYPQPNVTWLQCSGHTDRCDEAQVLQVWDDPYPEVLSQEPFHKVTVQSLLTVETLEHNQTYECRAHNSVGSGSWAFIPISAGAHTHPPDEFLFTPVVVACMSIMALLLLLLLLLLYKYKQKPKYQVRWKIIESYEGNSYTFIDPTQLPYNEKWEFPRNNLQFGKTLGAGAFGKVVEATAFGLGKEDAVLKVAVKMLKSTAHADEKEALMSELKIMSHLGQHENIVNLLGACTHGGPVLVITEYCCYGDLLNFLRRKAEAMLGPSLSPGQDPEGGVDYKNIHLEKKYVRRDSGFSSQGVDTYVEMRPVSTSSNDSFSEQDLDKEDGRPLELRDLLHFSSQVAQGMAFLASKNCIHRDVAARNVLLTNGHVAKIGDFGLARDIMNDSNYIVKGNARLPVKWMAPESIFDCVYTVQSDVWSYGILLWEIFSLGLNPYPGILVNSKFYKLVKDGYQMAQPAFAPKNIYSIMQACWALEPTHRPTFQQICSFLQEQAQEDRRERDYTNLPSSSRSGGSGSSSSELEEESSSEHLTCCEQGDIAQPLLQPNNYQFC

One may read the inhibition as the relative decrease from the control value, in per cent. Usually IC50 stands for the concentration that gives 50% inhibition. With `COc1ccc(COc2ccc(Nc3ccc4ncc(N5CCOCC5)nc4c3C#N)cn2)cc1` [Example 52, 6-((6-((4-methoxybenzyl)oxy)pyridin-3-yl)amino)-3-morpholinoquinoxaline-5-carbonitrile], the inhibition at 1 µM in assay [1] is greater than 50%. Besides, the IC50 in assay [2] was 300 to 1000 nM; on FLT3 kinase (class symbol), 300 to 1000 nM; at PDGFRβ kinase it was greater than 1000 nM; in [3], less than 300 nM; on c-KIT kinase (class symbol), 100 to 300 nM; in assay [4] it was greater than 10000 nM. Besides, the results for the IC50 (at CSF-1R kinase (class symbol); in [5]) were less than 100 nM and 300 to 1000 nM, respectively.
As for `COc1cc(Nc2ccc3ncc(N4CCOCC4)nc3c2C#N)ccc1OCc1ccoc1` [Example 121, 6-((4-(furan-3-ylmethoxy)-3-methoxyphenyl)amino)-3-morpholinoquinoxaline-5-carbonitrile], the IC50 in [2] is 300 to 1000 nM; on FLT3 kinase (bound), greater than 1000 nM; on PDGFRβ kinase, greater than 1000 nM; in assay [3], 1000 to 10000 nM; against c-KIT kinase (class symbol) it was 100 to 300 nM; in [4], greater than 10000 nM. Besides, the IC50 was in the range of 100 to 300 nM against CSF-1R kinase (class symbol) and 1000 to 10000 nM in [5].
On to `COc1ccc(CNc2ccc(Nc3ccc4ncc(N5CCOCC5)nc4c3C#N)cc2OC)cc1` [Example 39, 6-((3-methoxy-4-((4-methoxybenzyl)amino)phenyl)amino)-3-morpholinoquinoxaline-5-carbonitrile], for which the IC50 is 300 to 1000 nM in assay [2]; greater than 1000 nM against FLT3 kinase (bound); greater than 1000 nM against PDGFRβ kinase; 1000 to 10000 nM in assay [3]; 100 to 300 nM on c-KIT kinase (class symbol); greater than 10000 nM in [4]. The IC50 is greater than 1000 nM at CSF-1R kinase (bound) and greater than 10000 nM in assay [5].
With `COc1ccc(COc2ccc(Nc3ccc4ncc(OC(C)C)nc4c3C#N)cc2OC)cn1` [Example 119, 3-isopropoxy-6-((3-methoxy-4-((6-methoxypyridin-3-yl)methoxy)phenyl)amino)quinoxaline-5-carbonitrile], the IC50 in assay [2] is greater than 10000 nM; against FLT3 kinase (class symbol), 100 to 300 nM; against PDGFRβ kinase, greater than 1000 nM; in assay [3] it was 1000 to 10000 nM; on c-KIT kinase (bound), greater than 1000 nM; in [4], greater than 10000 nM. The IC50 fell in the range of 100 to 300 nM at CSF-1R kinase (class symbol) and 1000 to 10000 nM in assay [5].
In the case of `COc1cc(Nc2ccc3ncc(N4CCOCC4)nc3c2C#N)ccc1OCC1CC1` [Example 36, 6-((4-(cyclopropylmethoxy)-3-methoxyphenyl)amino)-3-morpholinoquinoxaline-5-carbonitrile], the IC50 in assay [2] was 300 to 1000 nM; at FLT3 kinase (bound) it was greater than 1000 nM; at PDGFRβ kinase it was greater than 1000 nM; in [3], 1000 to 10000 nM; on c-KIT kinase (class symbol), 100 to 300 nM; in [4] it was greater than 10000 nM. Also, the IC50 at CSF-1R kinase (class symbol) was 300 to 1000 nM; in assay [5] it was greater than 10000 nM.
As for `COc1cc(Nc2ccc3ncc(N4CCOCC4)nc3c2C#N)ccc1OCc1nccn1C` [Example 48, 6-((3-methoxy-4-((1-methyl-1H-imidazol-2-yl)methoxy)phenyl)amino)-3-morpholinoquinoxaline-5-carbonitrile], the IC50 in [2] was 1000 to 10000 nM; against FLT3 kinase (bound), greater than 1000 nM; at PDGFRβ kinase, greater than 1000 nM; in [3] it was greater than 10000 nM; at c-KIT kinase (class symbol) it was 300 to 1000 nM; in [4], greater than 10000 nM. The IC50 against CSF-1R kinase (bound) is greater than 1000 nM; in [5] it was greater than 10000 nM.
Turning to `COc1cc(Nc2ccc3ncc(N4CCOCC4)nc3c2C#N)ccc1OCc1cnccn1` [Example 51, 6-((3-methoxy-4-(pyrazin-2-ylmethoxy)phenyl)amino)-3-morpholinoquinoxaline-5-carbonitrile], the IC50 in assay [2] was 300 to 1000 nM; on FLT3 kinase (bound), greater than 1000 nM; at PDGFRβ kinase it was greater than 1000 nM; in [3], greater than 10000 nM; on c-KIT kinase (class symbol), less than 100 nM; in assay [4], greater than 10000 nM. For the same molecule, the IC50 at CSF-1R kinase (bound) is greater than 1000 nM; in [5], greater than 10000 nM.
With `COc1ccc(COc2ccc(Nc3ccc4ncc(OCCN(C)C)nc4c3C#N)cc2OC)cc1` [Example 13, 3-(2-(dimethylamino)ethoxy)-6-((3-methoxy-4-((4-methoxybenzyl)oxy)phenyl)amino)quinoxaline-5-carbonitrile], the IC50 is 1000 to 10000 nM in [2]; greater than 1000 nM at FLT3 kinase (bound); greater than 1000 nM at PDGFRβ kinase; 1000 to 10000 nM in assay [3]; 300 to 1000 nM at c-KIT kinase (class symbol); 1000 to 10000 nM in assay [4]. In addition, the IC50 at CSF-1R kinase (class symbol) is 100 to 300 nM; in assay [5], 1000 to 10000 nM.
In the case of `COc1cc(Nc2ccc3ncc(N4CCOCC4)nc3c2C#N)ccc1OCc1ccc(N(C)C)nc1` [Example 104, 6-((4-((6-(dimethylamino)pyridin-3-yl)methoxy)-3-methoxyphenyl)amino)-3-morpholinoquinoxaline-5-carbonitrile], the IC50 is 1000 to 10000 nM in assay [2]; greater than 1000 nM on FLT3 kinase (bound); greater than 1000 nM against PDGFRβ kinase; 1000 to 10000 nM in assay [3]; less than 100 nM at c-KIT kinase (class symbol); greater than 10000 nM in [4]. Moreover, the IC50 against CSF-1R kinase (class symbol) is less than 100 nM; in [5] it was 1000 to 10000 nM.
As to `COc1cnc2ccc(Nc3ccc(NCc4ccc(C(F)(F)F)cc4)nc3)c(C#N)c2n1` [Example 4, 3-methoxy-6-((6-((4-(trifluoromethyl)benzyl)amino)pyridin-3-yl)amino)quinoxaline-5-carbonitrile], the IC50 in [2] is 1000 to 10000 nM; on FLT3 kinase (bound), greater than 1000 nM; at PDGFRβ kinase, greater than 1000 nM; in assay [3] it was 1000 to 10000 nM; against c-KIT kinase (class symbol), 300 to 1000 nM; in assay [4], greater than 10000 nM. Moreover, the IC50 at CSF-1R kinase (bound) was greater than 1000 nM; in [5], greater than 10000 nM.
As for `COc1cc(Nc2ccc3ncc(N4CCOCC4)nc3c2C#N)ccc1OCc1ccco1` [Example 122, 6-((4-(furan-2-ylmethoxy)-3-methoxyphenyl)amino)-3-morpholinoquinoxaline-5-carbonitrile], the IC50 was 300 to 1000 nM in assay [2]; greater than 1000 nM at FLT3 kinase (bound); greater than 1000 nM on PDGFRβ kinase; 1000 to 10000 nM in [3]; less than 100 nM on c-KIT kinase (class symbol); greater than 10000 nM in assay [4]. The IC50 against CSF-1R kinase (class symbol) is 100 to 300 nM; in assay [5], 1000 to 10000 nM.
